The source of these data is publication PMC4503722, “Novel Phenotypic Outcomes Identified for a Public Collection of Approved Drugs from a Publicly Accessible Panel of Assays” (PLoS ONE, 2015).

The subject of assay [1] is endothelial tube formation in co-cultures of ECFCs and ADSCs treated with VEGF. The assay is described as follows: cells. The class given is cell-based, human.
In assay [2] the test system is nuclear β-catenin in C2C12 cells. The assay is described as follows: cells. The class given is cell-based. To be noted: assay number 5; concentration response.
Assay [3] deals with alkaline phosphatase (ALP) activity in C2C12 cells. The class given is cell-based. The following applies: assay number 6; concentration response.
The subject of assay [4] is HeLa cells. The assay is described as follows: cells. The class given is cell-based. To be noted: for Hela CellCycMod PI 2N IC50/EC50: assay number 14; for Hela CellCycMod PI S Phase IC50/EC50: assay number 15; for Hela CellCycMod PI 4N IC50/EC50: assay number 16; for Hela CellCycMod PI MI IC50/EC50: assay number 17; for Hela CellCycMod PI Cell Number IC50/EC50: assay number 18.

Assay [5] has as its system DLD-1. The assay is described as follows: cells. The class given is cell-based. To be noted: assay number 23; basal.
Assay [6] concerns SW480. The assay is described as follows: cells. To be noted: assay number 24; basal. Format: cell-based.
For assay [7], the system named is HCT116. The assay is described as follows: cells. The class given is cell-based. To be noted: assay number 25; basal.
The test system of assay [8] is HCT116 cells treated with a GSK3β inhibitor. The assay is described as follows: cells. Format: cell-based. The following applies: assay number 26; GSK3b inhibitor pretreated.
Assay [9] deals with Colo320. The assay is described as follows: cells. Format: cell-based. To be noted: assay number 27.
For assay [10], the system named is HT-29. The assay is described as follows: cells. Format: cell-based. The following applies: assay number 28.
Assay [11] relates to RKO. The assay is described as follows: cells. Format: cell-based. To be noted: assay number 29.
For assay [12], the system named is SNU-C1. The assay is described as follows: cells. Format: cell-based. To be noted: assay number 30.
The target of assay [13] is T1, hp70S6K1 (RPS6KB1) (Homo sapiens, UniProt P23443).
T1 construct: purchased Cerep (LANCE kinase assay platform, contract assay)
T1 sequence (P23443 whole entry): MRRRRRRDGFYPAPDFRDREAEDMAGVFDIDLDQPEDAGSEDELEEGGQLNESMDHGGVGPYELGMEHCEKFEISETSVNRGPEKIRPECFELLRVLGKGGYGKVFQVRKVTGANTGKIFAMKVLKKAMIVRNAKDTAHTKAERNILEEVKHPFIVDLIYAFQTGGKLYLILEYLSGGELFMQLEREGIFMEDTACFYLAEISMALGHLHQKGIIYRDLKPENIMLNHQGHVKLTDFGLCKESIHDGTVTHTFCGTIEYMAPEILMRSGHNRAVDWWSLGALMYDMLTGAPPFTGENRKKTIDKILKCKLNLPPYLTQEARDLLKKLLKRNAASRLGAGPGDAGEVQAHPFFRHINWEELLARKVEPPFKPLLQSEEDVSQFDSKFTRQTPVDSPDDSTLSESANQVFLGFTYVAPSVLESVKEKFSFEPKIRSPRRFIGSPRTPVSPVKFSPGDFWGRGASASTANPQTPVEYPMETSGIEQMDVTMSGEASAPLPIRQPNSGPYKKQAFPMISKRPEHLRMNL
The assay is described as follows: Cerep LANCE kinase assay hp70S6K1 (S1 assay 31). The class given is biochemical. To be noted: assay number 31. For orientation: In TR-FRET formats the signal depends on donor and acceptor labels being close together.

The target of assay [14] is T2, hKDR (Homo sapiens, UniProt P35968).
T2 construct: purchased Cerep (LANCE kinase assay platform, contract assay)
T2 sequence (P35968 20-1356): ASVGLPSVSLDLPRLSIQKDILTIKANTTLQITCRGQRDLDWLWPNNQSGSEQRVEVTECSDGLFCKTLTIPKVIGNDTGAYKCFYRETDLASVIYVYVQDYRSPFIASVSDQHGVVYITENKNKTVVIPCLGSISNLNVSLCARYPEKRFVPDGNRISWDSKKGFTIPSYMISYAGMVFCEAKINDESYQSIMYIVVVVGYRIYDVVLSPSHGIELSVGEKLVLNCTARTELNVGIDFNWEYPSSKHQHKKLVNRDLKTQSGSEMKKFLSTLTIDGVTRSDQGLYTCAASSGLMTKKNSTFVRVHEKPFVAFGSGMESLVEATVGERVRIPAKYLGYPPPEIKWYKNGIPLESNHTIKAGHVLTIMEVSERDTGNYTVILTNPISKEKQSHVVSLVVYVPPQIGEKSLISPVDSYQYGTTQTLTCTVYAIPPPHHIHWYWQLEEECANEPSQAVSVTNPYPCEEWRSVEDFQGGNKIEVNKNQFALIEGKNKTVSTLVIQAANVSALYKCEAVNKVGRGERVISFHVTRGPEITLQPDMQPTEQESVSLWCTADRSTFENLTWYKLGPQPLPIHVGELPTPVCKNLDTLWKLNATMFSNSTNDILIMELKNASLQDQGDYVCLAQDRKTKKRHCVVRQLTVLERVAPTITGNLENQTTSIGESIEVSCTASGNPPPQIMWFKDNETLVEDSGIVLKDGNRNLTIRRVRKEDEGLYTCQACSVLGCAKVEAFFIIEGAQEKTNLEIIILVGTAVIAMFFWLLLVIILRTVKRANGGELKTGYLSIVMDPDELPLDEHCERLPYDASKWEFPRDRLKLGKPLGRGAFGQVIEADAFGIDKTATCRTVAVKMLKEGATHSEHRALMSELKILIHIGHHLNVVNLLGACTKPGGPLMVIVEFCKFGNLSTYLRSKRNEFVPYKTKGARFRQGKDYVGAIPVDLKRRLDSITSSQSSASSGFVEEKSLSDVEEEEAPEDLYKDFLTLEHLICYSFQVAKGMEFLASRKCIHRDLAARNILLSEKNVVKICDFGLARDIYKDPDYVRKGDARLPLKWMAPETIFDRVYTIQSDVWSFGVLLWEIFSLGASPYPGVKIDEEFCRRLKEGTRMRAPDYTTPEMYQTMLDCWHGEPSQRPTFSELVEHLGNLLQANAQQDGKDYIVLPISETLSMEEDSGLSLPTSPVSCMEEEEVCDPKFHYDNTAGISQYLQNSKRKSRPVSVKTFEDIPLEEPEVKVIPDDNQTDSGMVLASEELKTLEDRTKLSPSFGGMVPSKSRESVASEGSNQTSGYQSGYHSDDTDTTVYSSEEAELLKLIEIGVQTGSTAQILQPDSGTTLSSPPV
The assay is described as follows: Cerep LANCE kinase assay hKDR (S1 assay 32). Format: biochemical. The following applies: assay number 32.

Assay [15] deals with T3, hJAK2 (Homo sapiens, UniProt O60674).
T3 construct: purchased Cerep (LANCE kinase assay platform, contract assay)
T3 sequence (O60674 whole entry): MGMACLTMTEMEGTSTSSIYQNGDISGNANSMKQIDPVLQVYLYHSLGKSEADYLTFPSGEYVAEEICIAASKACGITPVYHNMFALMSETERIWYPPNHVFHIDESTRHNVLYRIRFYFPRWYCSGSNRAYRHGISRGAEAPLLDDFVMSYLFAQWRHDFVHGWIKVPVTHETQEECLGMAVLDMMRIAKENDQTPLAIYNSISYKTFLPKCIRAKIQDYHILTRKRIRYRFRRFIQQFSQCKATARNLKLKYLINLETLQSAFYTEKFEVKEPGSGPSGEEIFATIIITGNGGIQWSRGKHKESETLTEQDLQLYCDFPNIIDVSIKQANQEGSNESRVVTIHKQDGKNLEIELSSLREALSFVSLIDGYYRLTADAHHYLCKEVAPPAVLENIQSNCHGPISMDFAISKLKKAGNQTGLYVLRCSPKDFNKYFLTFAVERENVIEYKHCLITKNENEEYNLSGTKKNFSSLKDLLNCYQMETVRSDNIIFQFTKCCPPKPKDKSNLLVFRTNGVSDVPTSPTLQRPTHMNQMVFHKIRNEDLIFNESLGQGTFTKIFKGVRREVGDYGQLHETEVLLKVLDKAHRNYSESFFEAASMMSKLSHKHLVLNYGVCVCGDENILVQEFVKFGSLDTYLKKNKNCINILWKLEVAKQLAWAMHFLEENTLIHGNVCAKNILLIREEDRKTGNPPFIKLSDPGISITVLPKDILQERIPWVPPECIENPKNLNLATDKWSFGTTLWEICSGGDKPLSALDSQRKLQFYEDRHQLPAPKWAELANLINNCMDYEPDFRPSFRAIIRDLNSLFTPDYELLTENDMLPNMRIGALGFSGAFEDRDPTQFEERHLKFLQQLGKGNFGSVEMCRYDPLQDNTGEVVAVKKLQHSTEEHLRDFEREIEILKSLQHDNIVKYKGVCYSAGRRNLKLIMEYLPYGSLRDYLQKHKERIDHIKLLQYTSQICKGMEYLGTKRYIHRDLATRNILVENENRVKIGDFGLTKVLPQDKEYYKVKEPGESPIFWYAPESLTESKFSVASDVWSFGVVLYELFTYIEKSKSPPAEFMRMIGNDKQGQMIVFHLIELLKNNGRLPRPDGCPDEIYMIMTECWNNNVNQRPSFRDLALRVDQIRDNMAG
The assay is described as follows: Cerep LANCE kinase assay hJAK2 (S1 assay 33). Format: biochemical. To be noted: assay number 33.

The target of assay [16] is T4, hGSK3b (Homo sapiens, UniProt P49841).
T4 construct: purchased Cerep (LANCE kinase assay platform, contract assay)
T4 sequence (P49841 whole entry): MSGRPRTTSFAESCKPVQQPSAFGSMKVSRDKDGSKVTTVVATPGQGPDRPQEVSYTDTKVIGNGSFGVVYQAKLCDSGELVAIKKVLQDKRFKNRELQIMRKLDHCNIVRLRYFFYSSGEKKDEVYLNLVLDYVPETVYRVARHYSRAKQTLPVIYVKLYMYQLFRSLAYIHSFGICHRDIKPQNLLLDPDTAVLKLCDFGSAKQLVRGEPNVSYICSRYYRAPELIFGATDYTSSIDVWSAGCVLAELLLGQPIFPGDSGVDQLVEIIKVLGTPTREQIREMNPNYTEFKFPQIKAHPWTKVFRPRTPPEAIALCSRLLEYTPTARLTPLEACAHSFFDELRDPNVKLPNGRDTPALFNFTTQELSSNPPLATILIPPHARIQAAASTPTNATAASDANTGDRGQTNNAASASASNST
The assay is described as follows: Cerep LANCE kinase assay hGSK3b (S1 assay 34). The following applies: assay number 34. Format: biochemical.

Assay [17] addresses T5, hFLT3 (Homo sapiens, UniProt P36888).
T5 construct: purchased Cerep (LANCE kinase assay platform, contract assay)
The assay is described as follows: Cerep LANCE kinase assay hFLT3 (S1 assay 35). Format: biochemical. To be noted: assay number 35.

Assay [18] deals with ECFC/ADSC co-culture cell nuclei number.

T5 sequence (P36888 27-993): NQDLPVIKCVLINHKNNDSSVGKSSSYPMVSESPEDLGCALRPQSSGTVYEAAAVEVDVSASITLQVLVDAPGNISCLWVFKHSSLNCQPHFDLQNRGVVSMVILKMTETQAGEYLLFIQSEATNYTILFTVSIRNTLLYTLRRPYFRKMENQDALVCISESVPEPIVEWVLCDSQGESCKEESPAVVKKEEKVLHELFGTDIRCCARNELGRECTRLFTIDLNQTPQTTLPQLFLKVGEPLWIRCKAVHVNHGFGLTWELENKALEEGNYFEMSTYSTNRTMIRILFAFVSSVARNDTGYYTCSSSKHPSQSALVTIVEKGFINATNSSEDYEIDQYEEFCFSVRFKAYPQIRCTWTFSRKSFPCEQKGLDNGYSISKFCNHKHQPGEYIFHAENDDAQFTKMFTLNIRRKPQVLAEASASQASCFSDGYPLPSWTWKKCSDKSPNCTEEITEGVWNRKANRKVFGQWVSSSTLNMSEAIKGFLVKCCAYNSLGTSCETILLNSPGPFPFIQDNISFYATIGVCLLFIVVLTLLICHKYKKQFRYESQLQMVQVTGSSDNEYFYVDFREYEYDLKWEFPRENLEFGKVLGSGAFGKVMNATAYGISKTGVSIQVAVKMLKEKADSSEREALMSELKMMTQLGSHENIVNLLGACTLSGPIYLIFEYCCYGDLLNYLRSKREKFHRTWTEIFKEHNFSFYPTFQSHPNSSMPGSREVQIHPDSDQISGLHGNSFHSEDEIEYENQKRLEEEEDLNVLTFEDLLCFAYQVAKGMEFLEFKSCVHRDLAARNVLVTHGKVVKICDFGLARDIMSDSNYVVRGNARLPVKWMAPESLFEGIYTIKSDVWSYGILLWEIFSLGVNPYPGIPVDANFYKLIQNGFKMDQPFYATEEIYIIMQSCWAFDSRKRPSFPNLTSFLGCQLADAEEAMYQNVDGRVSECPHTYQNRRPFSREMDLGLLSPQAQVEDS

Consider `O=C(CCl)c1ccc(Cl)cc1Cl` [NCGC00091258-05], for which the “VEGF_ADSC\ECFC Angio CD31 TubeArea IC50/EC50” value in assay [1] was 2487.5 nM. Besides, the “WntCondMedia_bCatenin C2C12 IC50/EC50” value in [2] was 372.8 nM. The “WntCondMedia_Alk Phos C2C12 IC50/EC50” value in [3] is > 20000 nM. In addition, in assay [4], the “Hela CellCycMod PI 2N IC50/EC50” value was determined as 514 nM, the “Hela CellCycMod PI S Phase IC50/EC50” value was > 10000 nM, the “Hela CellCycMod PI 4N IC50/EC50” value was > 10000 nM and the “Hela CellCycMod PI MI IC50/EC50” value stood at 541 nM. For the same molecule, the “Hela CellCycMod PI Cell Number IC50/EC50” value in [4] turned out to be 350 nM. Moreover, the “Basal_Viability ATP DLD-1 IC50/EC50” value in assay [5] is 2065.1 nM. Moreover, the “Basal_Viability ATP SW480 IC50/EC50” value in assay [6] came to 1249 nM. Also, the “Basal_Viability ATP HCT116 IC50/EC50” value in assay [7] is 6300 nM. Moreover, the “GSK3b inh pretreated_Viability ATP HCT116 IC50/EC50” value in assay [8] was found to be 1098 nM. In addition, the “Basal_Viability ATP Colo 320 IC50/EC50” value in assay [9] (basal) was found to be 530.1 nM. The “Basal_Viability ATP HT-29 IC50/EC50” value in assay [10] (basal) is 8521.7 nM. In addition, the “Basal_Viability ATP RKO IC50/EC50” value in assay [11] (basal) is 4299 nM. Moreover, the “Basal_Viability ATP SNU-C1 IC50/EC50” value in [12] (basal) turned out to be 2975.2 nM. For the same molecule, in assay [13], the “hp70S6K1 LANCE IC50/EC50” value was > 20000 nM. Besides, the “hKDR LANCE IC50/EC50” value in [14] was > 20000 nM. Also, the “hJAK2 LANCE IC50/EC50” value in assay [15] was > 20000 nM. In addition, the “hGSK3b LANCE IC50/EC50” value in [16] is > 20000 nM. For the same molecule, the “hFLT3 LANCE IC50/EC50” value in assay [17] is > 20000 nM. In addition, in assay [18], the “VEGF_ADSC\ECFC Angio Hoechst NucArea IC50/EC50” value was found to be 6173.9 nM.

Take `Cc1nc(N)nc(N)c1-c1ccc(Cl)c(Cl)c1` [NCGC00253626-01]: the “WntCondMedia_bCatenin C2C12 IC50/EC50” value in assay [2] was found to be 50.4 nM. In addition, the “WntCondMedia_Alk Phos C2C12 IC50/EC50” value in assay [3] is 29.9 nM. Besides, in [4], the “Hela CellCycMod PI 2N IC50/EC50” value is > 10000 nM, the “Hela CellCycMod PI S Phase IC50/EC50” value was > 10000 nM, the “Hela CellCycMod PI 4N IC50/EC50” value is > 10000 nM and the “Hela CellCycMod PI MI IC50/EC50” value was > 10000 nM. For the same molecule, the “Hela CellCycMod PI Cell Number IC50/EC50” value in assay [4] was 1006.8 nM. For the same molecule, the “Basal_Viability ATP DLD-1 IC50/EC50” value in [5] was found to be 633.7 nM. Also, in [6], the “Basal_Viability ATP SW480 IC50/EC50” value came to 512 nM. For the same molecule, in [7], the “Basal_Viability ATP HCT116 IC50/EC50” value stood at 413.4 nM. In addition, the “GSK3b inh pretreated_Viability ATP HCT116 IC50/EC50” value in [8] was 58.88 nM. In assay [9] (basal), the “Basal_Viability ATP Colo 320 IC50/EC50” value was determined as 2030 nM. Further, the “Basal_Viability ATP HT-29 IC50/EC50” value in [10] (basal) amounted to 931.6 nM. For the same molecule, in [11] (basal), the “Basal_Viability ATP RKO IC50/EC50” value was 117.1 nM. For the same molecule, the “Basal_Viability ATP SNU-C1 IC50/EC50” value in assay [12] (basal) came to 2165 nM. For the same molecule, the “hp70S6K1 LANCE IC50/EC50” value in [13] is > 20000 nM. The “hKDR LANCE IC50/EC50” value in [14] was > 20000 nM. Moreover, the “hJAK2 LANCE IC50/EC50” value in assay [15] is > 20000 nM. Besides, the “hGSK3b LANCE IC50/EC50” value in [16] is > 20000 nM. Moreover, the “hFLT3 LANCE IC50/EC50” value in assay [17] was > 20000 nM.

Take `CC[C@]1(O)C[C@@H]2CN(CCc3c([nH]c4ccccc34)[C@@](C(=O)OC)(c3cc4c(cc3OC)N(C)[C@H]3[C@@](O)(C(=O)OC)[C@H](OC(C)=O)[C@]5(CC)C=CCN6CC[C@]43[C@@H]65)C2)C1.O=S(=O)(O)O` [NCGC00263548-01]: the “VEGF_ADSC\ECFC Angio CD31 TubeArea IC50/EC50” value in assay [1] turned out to be 2.3 nM. For the same molecule, the “WntCondMedia_bCatenin C2C12 IC50/EC50” value in assay [2] came out at 5.8 nM. The “WntCondMedia_Alk Phos C2C12 IC50/EC50” value in [3] was determined as 8.9 nM. In [4], the “Hela CellCycMod PI 2N IC50/EC50” value was 3.3 nM, the “Hela CellCycMod PI S Phase IC50/EC50” value is > 10000 nM, the “Hela CellCycMod PI 4N IC50/EC50” value was 3.2 nM and the “Hela CellCycMod PI MI IC50/EC50” value turned out to be 3.2 nM. In [4], the “Hela CellCycMod PI Cell Number IC50/EC50” value is 2.6 nM. In addition, in [7], the “Basal_Viability ATP HCT116 IC50/EC50” value was 1 nM. In assay [8], the “GSK3b inh pretreated_Viability ATP HCT116 IC50/EC50” value turned out to be 1 nM. For the same molecule, the “Basal_Viability ATP Colo 320 IC50/EC50” value in assay [9] worked out at 1 nM. Besides, the “Basal_Viability ATP HT-29 IC50/EC50” value in assay [10] was 1 nM. Also, the “Basal_Viability ATP RKO IC50/EC50” value in assay [11] is 1 nM. Also, the “Basal_Viability ATP SNU-C1 IC50/EC50” value in assay [12] is > 20000 nM. Besides, the “hp70S6K1 LANCE IC50/EC50” value in [13] was > 20000 nM. Further, in assay [14], the “hKDR LANCE IC50/EC50” value is > 20000 nM. Further, the “hJAK2 LANCE IC50/EC50” value in assay [15] was > 20000 nM. Also, the “hGSK3b LANCE IC50/EC50” value in assay [16] is > 20000 nM. For the same molecule, in assay [17], the “hFLT3 LANCE IC50/EC50” value was > 20000 nM. In addition, the “VEGF_ADSC\ECFC Angio Hoechst NucArea IC50/EC50” value in assay [18] was > 10000 nM.
